Measurements as given in patent US12285434B2, “Therapeutic, preventive, or improvement agent for inflammatory disease and allergic disease” (The University of Tokyo, priority 2018, dated 2025).

Tests used:
anaphylaxis model mice = assay: Histamine-induced anaphylaxis: blood pressure and body temperature; type: in vivo, mouse (C57BL/6); details: 50 μg/kg intravenously 15 minutes before histamine 50 mg/kg
Experimental: Histamine (50 mg/kg) lysed in a physiological saline solution was intravenously administered to C57BL/6 strain mice (male, 8 to 12 weeks old) to prepare anaphylaxis model mice (hereinafter, sometimes referred to as “anaphylaxis group”). […] L-NAME is an NO synthesis inhibitor. As indices of anaphylactic symptoms, a body temperature decrease and a blood pressure decrease were observed.

[1] = test system: calcium ion concentration in HUVECs; assay: Histamine-induced increase of calcium ion concentration (fura-2); type: cell-based, human; details: histamine 10 μM
Experimental: These cells (passages 4 to 9) were used for experiments after 4-hour starvation in EBM-2 (manufactured by Lonza K.K.) containing 2% FBS.
HUVECs were incubated with a calcium fluorescence indicator (3 μg fura-2/AM containing 0.11% Cremophor EL) for 30 minutes and washed with an HEPES buffer three times. […] Then, 5 minutes after the addition of each reagent, histamine was added so as to attain 10 μM. In addition, a group to which histamine was added so as to attain 10 μM without pretreatment was also prepared. A cover slip was placed in a specialized airtight chamber mounted onto the stage of a microscope maintained at 37° C. The HUVECs were excited at 340 nm and 380 nm and the emitted fluorescence signal was measured every 3 seconds at 510 nm for 60 seconds. The fluorescence ratio (R:F340/F380) was determined using a fluorescence imaging system (AQUACOSMOS, manufactured by Hamamatsu Photonics K.K.). After the experiment, 1 μM ionomycin was added and the fluorescence changes were measured in the presence of 0 or 1.5 mM calcium ions. The calcium ion concentration was indicated as A fluorescence ratio. AUC was calculated 1 minute after each stimulus to evaluate the A fluorescence ratio. It is known that the increase of calcium ion concentration in endothelial cells promotes NO production by eNOS phosphorylation and […] smooth muscle cells (Garcia-Cardena, G. et al., Nature, 392: 821-824(1998); and Luo, Z. et al., The Journal of clinical investigation, 106: 493-499(2000)).

[2] = test system: DSS-induced colitis model mice; assay: DSS-induced colitis: colitis severity (body weight, fecal score, colon length); type: in vivo, mouse (C57BL/6); details: Day 14; 50 μg/kg/day intraperitoneally on Days 9, 11 and 13
From the text: C57BL/6 strain mice (male, 8 to 12 weeks old) were fed with water containing 2% dextran sodium sulfate (manufactured by MP Bio, hereinafter sometimes referred to as “DSS”) for 4 days to prepare colitis model mice (hereinafter, sometimes referred to as “colitis group” in Examples 7 to 10). The mice taken with DSS for 4 days were fed with normal water from Day 5. The DSS intake start date was defined as Day 1 of the test, and the day before the DSS intake start date was defined as Day 0 of the test. In addition, a group in which C57BL/6 strain mice (male, 8 to 12 weeks old) were fed with normal water was defined as a “healthy group” (the same applies to Examples 8 to 10).
In order to evaluate colitis severity, the fecal condition was evaluated and the body weight was measured daily for the colitis model mice and healthy group prepared in the above item (1). The fecal condition was evaluated based on the following five-grade fecal scores. Specifically, the fecal scores were 0: normal; 1: soft but still formed; 2: very soft; 3: diarrhea; and 4: bloody feces. In addition, the colon length was measured as an index of the colitis severity.
To investigate the role of 5,6-DiHETE in the healing phase, the colitis model mice prepared in Example 7(1) were intraperitoneally injected with 5,6-DiHETE (manufactured by Cayman Chemical) (50 μg/kg/day) or HC-067047 (manufactured by Cayman Chemical) (1 mg/kg/day) on Days 9, 11 and 13 of the test (hereinafter, sometimes referred to as “5,6-DiHETE-administered group” and “HC-067047-administered group,” respectively, in Examples 9 and 10). HC-067047 is known to inhibit an increase of calcium ion concentration in endothelial cells.
The colitis severity was determined according to the index and criteria described in Example 7(2).

[3] = test system: histamine-induced vascular permeability in mouse ears; assay: Modified Miles assay: histamine-induced vascular hyperpermeability (Evans blue extravasation); type: in vivo, mouse (C57BL/6); details: pretreatment 0.1 μg/ear, 15 minutes, before 400 μg histamine
Experimental: Fifteen (15) minutes after the intracutaneous injection, a vehicle (80% acetone) or histamine (400 μg, manufactured by Molecular Probes) was percutaneously administered to the ventral surface of the ears. To evaluate vascular permeability, Evans blue (50 mg/kg, manufactured by Sigma) was injected intravenously 5 minutes after the administration of histamine. The mice were then euthanized by cervical dislocation 30 minutes after the injection of Evans blue. The ears were dissected, dried at 55° C., and weighed. Extravasated Evans blue present in the ears was extracted in formamide (manufactured by Molecular Probes), and quantified spectrophotometrically (manufactured by PerkinElmer Japan Co., Ltd.) at a wavelength of 610 nm.

HUVECs = assay: Endothelial barrier function: transendothelial electrical resistance (TER); type: cell-based, human
Experimental: In Examples 4 to 6, human umbilical vein endothelial cells (hereinafter, sometimes referred to as “HUVECs”, manufactured by Lonza) were cultured in EGM-2 (manufactured by Lonza K.K.). These cells (passages 4 to 9) were used for experiments after 4-hour starvation in EBM-2 (manufactured by Lonza K.K.) containing 2% FBS.
The in vitro endothelial barrier function was evaluated by measuring the transendothelial electrical resistance (hereinafter, sometimes referred to as “TER”) of the HUVECs prepared in the above item (1) over time. Specifically, the transendothelial electrical resistance was measured using an xCELLigence Real-Time Cell Analyzer DP system (manufactured by Roche). The system monitors changes in TER across an interdigitated microelectrode at the bottom of tissue culture E-plates (manufactured by Roche). The HUVECs (8,000 cells) were plated on the E-plates and incubated until confluent. Then, the following operation (a) or (b) was performed.
(a) Each reagent was added to plates on which the HUVECs were cultured, so as to give a vehicle, 1 U/mL thrombin, 1 μM forskolin, or 0.1 μM or 0.3 μM 5,6-DiHETE (FIGS. 4A and 4B).
(b) A vehicle or […] was added to plates on which the HUVECs were cultured, so as to attain 10 μM. […] Thirty (30) minutes after the addition, 10 μM histamine was added to each plate 30 minutes after the addition (FIGS. 4C and 4D).
In the above operations (a) and (b), the TER was measured every 60 seconds. For normalization, the cell index value at each time point is shown as a ratio relative to the initial value. The maximum normalized cell index after stimulation was quantified and represented as maximal response. Note that it is known that the disruption of the endothelial barrier function lowers the TER, but that the enhancement of the endothelial barrier function increases the TER.

**Q.** For `CC/C=C\C/C=C\C/C=C\C/C=C\C[C@@H](O)[C@@H](O)CCCC(=O)O` (racemic) [5,6-DiHETE, (±) 5,6-dihydroxy-8Z,11Z,14Z,17Z-eicosatetraenoic acid], which blood pressure (anaphylaxis model mice) is on record?
**A.** 93.3±4.9 mmHg

**Q.** What about the body temperature decrease (anaphylaxis model mice) of the same compound?
**A.** −0.2±0.1 °C

**Q.** What about the “calcium ion concentration, AUC at 1 minute after stimulation” value (“calcium ion concentration, AUC” for short) ([1]; pretreatment 0.03 μM) of the same compound?
**A.** 7.8±2.3

**Q.** What about the “calcium ion concentration, AUC” value ([1]; pretreatment 0.1 μM) of the same compound?
**A.** 5.9±1.5

**Q.** And the “calcium ion concentration, AUC” value ([1]; pretreatment 0.3 μM)?
**A.** 1.8±1.1

**Q.** And the colon length [2]?
**A.** 6.4±0.1 cm

**Q.** What about the fecal score [2] of the same compound?
**A.** decreased to the normal level

**Q.** And the “relative body weight, of the initial weight” value [2]?
**A.** 115.2±2.5%

**Q.** And the “dye extravasation (Evans blue) in ear” value [3]?
**A.** 0.06 ± 0.02 µg/mg

**Q.** And the “change of TER” value (HUVECs; 0.1 μM and 0.3 μM, alone)?
**A.** did not change the TER

**Q.** What about the “TER, minimum (normalized cell index)” value (HUVECs; pretreatment 0.3 μM, 15 minutes, before histamine 10 μM) of the same compound?
**A.** 0.915±0.012 fold
